Reference: US6465482B2, “Arylpiperazinyl-cyclohexyl indole derivatives for the treatment of depression” (Wyeth, priority 1999, dated 2002)

Assays:
serotonin transporter = target: T1, serotonin transporter (Rattus norvegicus, UniProt P31652); assay: serotonin transporter affinity, 3H-paroxetine binding, frontal cortical membranes; settings: for Ki: 3H-paroxetine 0.1 nM, read-out: ST (Ki, nM,)
T1 construct: frontal cortical membranes prepared from male Sprague-Dawley rats; from tissue; host or cells: rat frontal cortex membranes
T1 sequence (P31652 whole entry): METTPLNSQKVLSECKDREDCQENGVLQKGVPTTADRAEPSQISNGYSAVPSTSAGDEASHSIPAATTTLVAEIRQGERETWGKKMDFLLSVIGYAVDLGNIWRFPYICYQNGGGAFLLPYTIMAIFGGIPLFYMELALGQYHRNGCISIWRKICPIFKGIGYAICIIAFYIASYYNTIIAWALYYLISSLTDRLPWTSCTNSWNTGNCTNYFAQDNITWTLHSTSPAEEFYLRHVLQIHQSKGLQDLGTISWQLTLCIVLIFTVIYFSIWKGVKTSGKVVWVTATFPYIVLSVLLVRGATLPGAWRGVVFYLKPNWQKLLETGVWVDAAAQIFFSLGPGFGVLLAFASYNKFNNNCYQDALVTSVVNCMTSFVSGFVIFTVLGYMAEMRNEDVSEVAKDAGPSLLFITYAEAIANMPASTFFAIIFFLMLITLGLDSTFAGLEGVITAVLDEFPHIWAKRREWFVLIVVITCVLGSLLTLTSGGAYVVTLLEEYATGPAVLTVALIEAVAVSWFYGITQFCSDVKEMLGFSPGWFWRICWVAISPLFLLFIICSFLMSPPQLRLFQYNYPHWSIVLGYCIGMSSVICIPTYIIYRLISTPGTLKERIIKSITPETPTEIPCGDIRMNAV
Description: A protocol similar to that used by Cheetham et al., Neuropharmacol. […] Briefly, frontal cortical membranes prepared from male Sprague-Dawley rats were incubated with ^3H-paroxetine (0.1 nM) for 60 minutes at 25° C. […] All reactions are terminated by the addition of ice cold Tris buffer followed by rapid filtration using a Tom Tech filtration device to separate bound from free ^3H-paroxetine.

[1] = target: T2, human 5-HT1A receptor subtype (Homo sapiens, UniProt P08908); assay: 5-HT1A receptor binding, [3H]8-OH-DPAT, CHO cell membranes; settings: for Ki: [3H]8-OH-DPAT 1.5 nM; for 5-HT1A, value given as %: concentration not given
T2 construct: expressed in transfected cells
T2 sequence (P08908 1-422): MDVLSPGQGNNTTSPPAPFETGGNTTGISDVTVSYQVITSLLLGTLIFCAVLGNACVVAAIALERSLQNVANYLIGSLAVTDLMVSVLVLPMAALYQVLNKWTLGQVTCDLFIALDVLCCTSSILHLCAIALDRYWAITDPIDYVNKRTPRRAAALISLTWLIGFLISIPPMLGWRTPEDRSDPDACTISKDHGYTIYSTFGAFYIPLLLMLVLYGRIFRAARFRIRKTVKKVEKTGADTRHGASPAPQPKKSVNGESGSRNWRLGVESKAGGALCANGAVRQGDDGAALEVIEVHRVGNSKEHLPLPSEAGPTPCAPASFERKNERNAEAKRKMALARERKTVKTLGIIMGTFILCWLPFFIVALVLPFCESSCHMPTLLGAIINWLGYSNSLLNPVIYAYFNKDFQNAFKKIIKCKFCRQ
Description: The PCR cloning of the human 5-HT1A receptor subtype from a human genomic library has been described previously Chanda et al., Mol. Pharmacol., 43:516 (1993). A stable Chinese hamster ovary cell line expressing the human 5-HT1A receptor subtype (5-HT1A.CH2O cells) was employed throughout this study. Cells were maintained in DMEM supplemented with 10% fetal calf serum, non-essential amino acids and penicillin/streptomycin.
Cells were grown to 95-100% confluency as a monolayer before membranes were harvested for binding studies. Cells were gently scraped from the culture plates, transferred to centrifuge tubes, and washed twice by centrifugation (2000 rpm for 10 min., 4° C.) in buffer (50 mM Tris; pH 7.5). The resulting pellets were aliquoted and placed at −80° C. On the day of assay, the cells were thawed on ice, and resuspended in buffer. Studies were conducted using [^3H]8-OH-DPAT as the radioligand. The binding assay was performed in 96 well microtiter plates in a final total volume of 250 μL of buffer. Competition experiments were performed by using 7 concentrations of unlabelled drug and a final ligand concentration of 1.5 nM. Non-specific binding was determined in the presence of 10 μM 5HT. Saturation analysis was conducted by using [^3H]8-OH-DPAT at concentaritions ranging from 0.3-30 nm Following a 30 minute incubation at room temperature, the reaction was terminated by the addition of ice cold buffer and rapid filtration using a M-96 Brandel Cell Harvester (Gaithersburg, Md.) through a GF/B filter presoaked for 30 minutes in 0.5% polyethylenenimine.

Structure (SMILES) | Ki (serotonin transporter) [nM] | Ki [1] [nM] | also measured
Cn1cc([C@H]2CC[C@@H](N3CCN(c4cc(F)cc5c4OCC5)CC3)CC2)c2cc(C#N)ccc21 [Example 33c, 3-{(1,4-cis)-4-[4-(5-Fluoro-2,3-dihydro-benzofuran-7-yl)-piperazin-1-yl]-cyclohexyl}-1-methyl-1H-indole-5-carbonitrile] | 7.1 | 431 | –
N#Cc1ccc2[nH]cc([C@H]3CC[C@H](N4CCN(c5cccc6ccoc56)CC4)CC3)c2c1 [Example 34b] | 17 | 8.37 | –
Fc1cc2c(c(N3CCN([C@H]4CC[C@@H](c5c[nH]c6ccc(F)cc65)CC4)CC3)c1)OCCC2 [Example 31a, 5-Fluoro-3-{(1,4-cis)-4-[4-(6-fuoro-chroman-8-yl)-piperazin-1-yl]-cyclohexyl}-1H-indole] | 13 | 142 | –
COc1cc(N2CCN([C@H]3CC[C@@H](c4c[nH]c5ccc(C#N)cc54)CC3)CC2)c2ncccc2c1 [Example 44c, 3-{(1,4-cis)-4-[4-(6-Methoxy-quinolin-8-yl)-piperazin-1-yl]-cyclohexyl}-1H-indole-5-carbonitrile] | 1.5 | 21 | –
Cn1cc([C@H]2CC[C@@H](N3CCN(c4cccc5cccnc45)CC3)CC2)c2cc(F)ccc21 [Example 28, 8-{4-(1,4-cis)-4-[4-(5-Fluoro-1-methyl-1H-indol-3-yl)-cyclohexyl]-piperazin-1-yl}-quinoline] | 2.02 | 25.1 | –
CC(C)n1cc([C@H]2CC[C@H](N3CCN(c4cccc5[nH]ccc45)CC3)CC2)c2cc(C#N)ccc21 [Example 15b, 3-{(1,4-trans)-4-[4-(1H-indol-4-yl)-piperazin-1-yl]-cyclohexyl}-1-isopropyl-1H-indole-5-carbonitrile] | – | – | ST, value given as % (serotonin transporter; concentration not given): 16%
Fc1cc2c(c(N3CCN([C@H]4CC[C@@H](c5c[nH]c6ccc(F)cc65)CC4)CC3)c1)OCC2 [Example 32a, 5-Fluoro-3-{(1,4-cis)-4-[4-(5-fluoro-2,3-dihydro-benzofuran-7-yl)-piperazin-1-yl]-cyclohexyl}-1H-indole] | 14 | 246 | –
N#Cc1ccc2[nH]cc([C@H]3CC[C@@H](N4CCN(c5cccc6ccoc56)CC4)CC3)c2c1 [Example 34a] | 1.49 | 185 | –
Fc1ccc2[nH]cc([C@H]3CC[C@H](N4CCN(c5cccc6c5OCCO6)CC4)CC3)c2c1 [Example 24b, 3-{(1,4-trans)-4-[4-(2,3-Dihydro-benzo[1,4]dioxin-5-yl)-piperazin-1-yl]-cyclohexyl}-5-fluoro-1H-indole] | 36 | 11.3 | –
N#Cc1ccc2c(c1)c([C@H]1CC[C@@H](N3CCN(c4cccc5[nH]ccc45)CC3)CC1)cn2Cc1ccccc1 [Example 16a, 1-Benzyl-3-{(1,4-cis)-4-[4-(1H-indol-4-yl)-piperazin-1-yl]-cyclohexyl}-1H-indole-5-carbonitrile] | 29 | – | 5-HT1A, value given as % [1]: 0%
N#Cc1ccc2c(c1)c([C@H]1CC[C@H](N3CCN(c4cccc5[nH]ccc45)CC3)CC1)cn2Cc1ccccc1 [Example 16b, 1-Benzyl-3-{(1,4-trans)-4-[4-(1H-indol-4-yl)-piperazin-1-yl]-cyclohexyl}-1H-indole-5-carbonitrile] | – | – | ST, % 100 nM (serotonin transporter; 100 nM): 25%; 5-HT1A, % @ 100 nM ([1]; 100 nM): 0% @
COc1ccccc1C1CCN([C@H]2CC[C@@H](c3c[nH]c4ccc(F)cc43)CC2)CC1 [Example 19a, 5-Fluoro-3-{(1,4-cis)-4-[4-(2-methoxy-phenyl)-piperidin-1-yl]-cyclohexyl}-1H-indole] | 5.72 | 264 | –
CC(C)n1cc([C@H]2CC[C@@H](N3CCN(c4cccc5[nH]ccc45)CC3)CC2)c2cc(C#N)ccc21 [Example 15a, 3-{(1,4-cis)-4-[4-(1H-indol-4-yl)-piperazin-1-yl]-cyclohexyl}-1-isopropyl-1H-indole-5-carbonitrile] | 28 | – | –
CCCn1cc([C@H]2CC[C@H](N3CCN(c4cccc5[nH]ccc45)CC3)CC2)c2cc(C#N)ccc21 [Example 14b, 3-{(1,4-trans)-4-[4-(1H-indol-4-yl)-piperazin-1-yl]-cyclohexyl}-1-propyl-1H-indole-5-carbonitrile] | – | – | 5-HT1A, value given as % [1]: 0%
